System: zebrafish embryos
Test: Whole-mount in situ hybridization of gene expression in zebrafish embryos
Assay type: in vivo
Protocol: This process was carried out basically in accordance with the technique of Thisse et al. See High-resolution In Situ Hybridization to Whole-mount Zebrafish Embryos, Nat. Protcol., 3 (1) 59-69, (2008). The differences were that 5 mg/ml Torula yeast RNA was used as a blocker in the probe hybridization solution, and that 0.5% Blocking Reagent (Roche) was used as a blocker in the antibody reaction solution. The cDNA of the genes used as the probe (the six3.2 gene, the emx1 gene, the pax2.1 gene, the foxg1 gene, and the otx2 gene) were presents of the original provider. As the probe for the lhx2 gene, the one initially cloned by Ando was used. For the probes of the CRBN gene and related genes, primers were designed based on the EST database of zebrafish, and the probes were cloned from a cDNA library.
Expression of Pou5f1 (Oct3/4), Klf4, c-Myc, and HuC (Elavl3) in zebrafish embryos was analyzed by in situ hybridization. The embryos were fixed with 4% paraformaldehyde for 1 hour at room temperature and rinsed with phosphate buffered saline (PBS). The fixed embryos were refixed with 100% methanol and placed at −80° C. for over 12 hours. The embryos were defixed by rinsing with PBS, and the skin was digested with pronase (2 mg/ml), followed by refixation and defixation, and prehybridized in HYB* buffer (50% formamide, 5×SSC, 10 mM Citric acid, 0.1% Tween 20) for 15 minutes and in HYB+(added as 5 mg/ml torula (yeast) RNA, 50 μg/ml heparin to HYB*) for 1 hour at 65° C. After addition of 1 ng/μl of DIG (digoxigenin)-labeled probe, hybridization was performed for overnight at 65° C. After hybridization, the embryos were washed by 50% formamide in 2×SSC for 30 minutes (twice), 2×SSC for 15 minutes, 0.2×SSC for 30 minutes (twice) at 65° C. Then blocking treatment was done by 0.5% purified casein in PBSTw (PBS plus 0.1% Tween 20) at room temperature for 1 hour. After that, immunostaining was performed in 1/4000 dilution of anti-DIG Fab-AP fragment in 0.5% purified casein in PBSTw for 4 hours at room temperature.
After washing with PBSTw for 90 minutes, staining was carried out in the presence of substrate of alkaline phosphatase (Nitro blue tetrazolium and 5-bromo 4-chloro 3-indolyl phosphate) in 100 mM Tris pH 9.5, 50 mM MgCl2, 100 mM NaCl, and 0.1% Tween-20. Reaction was stopped by rapid exchange of reaction buffer to PBSTw and cleaned with glycerol serials (30%, 50%, and 70% in PBS).
Expression of Ascl1a and Pou3f2b in CRBN-overexpressing and Ikaros-knockdown zebrafish embryos was analyzed by in situ hybridization. The embryos were fixed with 4% paraformaldehyde for 1 hour at room temperature and rinsed with phosphate buffered saline (PBS). The fixed embryos were refixed with 100% methanol and placed at −80° C. for over 12 hours. The embryos were defixed by rinsing with PBS, and the skin was digested with pronase (2 mg/ml), followed by refixation and defixation, and prehybridized in HYB* buffer (50% formamide, 5×SSC, 10 mM Citric acid, 0.1% Tween 20) for 15 minutes and in HYB+(added as 5 mg/ml torula (yeast) RNA, 50 μg/ml heparin to HYB*) for 1 hour at 65° C. After addition of 1 ng/μl of DIG (digoxigenin)-labeled probe, hybridization was performed for overnight at 65° C. After hybridization, the embryos were washed by 50% formamide in 2×SSC for 30 minutes twice, 2×SSC for 15 minutes, 0.2×SSC for 30 minutes twice at 65° C. Then blocking treatment was done by 0.5% purified casein in PBSTw (PBS plus 0.1% Tween 20) at room temperature for 1 hour. After that, immunostaining was performed in 1/4000 dilution of anti-DIG Fab-AP fragment in 0.5% purified casein in PBSTw for 4 hours at room temperature.
Expression of Sox2, Pou5f1 (Oct3/4), c-Myc, and Klf4 in zebrafish embryos was analyzed in untreated and CRBN-overexpressing zebrafish embryos by in situ hybridization. Overexpression was performed as follows: single-cell stage embryos were microinjected with 250 ng/μl of capped mRNA synthesized in vitro. […]

Substance | expression of Pou5f1 (Oct3/4) in the second and fourth rhombomeres in the hindbrain (10 hpf and 11 hpf) | expression of Huc in the brain and spinal cord (11 hpf) | number of HuC-positive neural progenitor cells in the brain and spinal cord (15 hpf) | number of the telencephalic neurons and the spinal cord neurons (16 hpf) | expression of Klf4 in the rostral portion of the neural tube (18 hpf) | expression of c-Myc in the tectal proliferation zone and ciliary marginal zone (30 hpf) | expression of Ascl1a (25 hpf) | expression of Pou3f2b (26 hpf)
5′-TGTGTTTCTTGTGCTTTTTGCCCAT-3′ (all phosphorodiamidate morpholino (PMO)) [BRD7-knockdown, 25-mer antisense morpholino oligonucleotide (AMO) used for the BRD7 gene knockdown] | increased | increased | increased | increased | increased | clearly increased |  | 
5′-TTCCTGTGCCTCCTCAGTCTCCATC-3′ (all phosphorodiamidate morpholino (PMO)) [Ikaros-knockdown, 25-mer antisense morpholino oligonucleotide (AMO) used for the Ikaros gene knockdown] |  |  |  |  |  |  | remarkably increased | increased

Reference: patent US10272117B2, “Methods of using an activator of cereblon for neural cell expansion and the treatment of central nervous system disorders” (Celgene Corporation, priority 2014, dated 2019)
